From patent US4814455A, “Dihydro-3,5-dicarboxylates” (Bristol-Myers Company, priority 1986, dated 1989)
Structures can show the parent of a compound that is named as a salt. Where two headings read alike, the source gives them in different places.

Key:
rat dorsal aorta = rat dorsal aorta (Rattus norvegicus, UniProt P22002); assay: cell-based; conditions: read-out: Calcium Entry Blockade (pA2) (converted)
Source text: Calcium ion entry blockade was studied in various smooth muscle systems such as rat dorsal aorta, portal vein, and trachea.

[1] = tested on: globally ischemic rat myocardium; assay: Autolysis: protection of high energy phosphate stores in globally ischemic rat myocardium; set-up: Autolysis (% Protection): concentration or dose not given beside the values; conditions: for Autolysis (% Protection): protection of high energy phosphate stores in globally ischemic rat myocardium
[2] = pA2 = negative log of molar antagonist concentration giving dose ratio of 2, active if 7 or greater

Chain of rat dorsal aorta (P22002 whole entry): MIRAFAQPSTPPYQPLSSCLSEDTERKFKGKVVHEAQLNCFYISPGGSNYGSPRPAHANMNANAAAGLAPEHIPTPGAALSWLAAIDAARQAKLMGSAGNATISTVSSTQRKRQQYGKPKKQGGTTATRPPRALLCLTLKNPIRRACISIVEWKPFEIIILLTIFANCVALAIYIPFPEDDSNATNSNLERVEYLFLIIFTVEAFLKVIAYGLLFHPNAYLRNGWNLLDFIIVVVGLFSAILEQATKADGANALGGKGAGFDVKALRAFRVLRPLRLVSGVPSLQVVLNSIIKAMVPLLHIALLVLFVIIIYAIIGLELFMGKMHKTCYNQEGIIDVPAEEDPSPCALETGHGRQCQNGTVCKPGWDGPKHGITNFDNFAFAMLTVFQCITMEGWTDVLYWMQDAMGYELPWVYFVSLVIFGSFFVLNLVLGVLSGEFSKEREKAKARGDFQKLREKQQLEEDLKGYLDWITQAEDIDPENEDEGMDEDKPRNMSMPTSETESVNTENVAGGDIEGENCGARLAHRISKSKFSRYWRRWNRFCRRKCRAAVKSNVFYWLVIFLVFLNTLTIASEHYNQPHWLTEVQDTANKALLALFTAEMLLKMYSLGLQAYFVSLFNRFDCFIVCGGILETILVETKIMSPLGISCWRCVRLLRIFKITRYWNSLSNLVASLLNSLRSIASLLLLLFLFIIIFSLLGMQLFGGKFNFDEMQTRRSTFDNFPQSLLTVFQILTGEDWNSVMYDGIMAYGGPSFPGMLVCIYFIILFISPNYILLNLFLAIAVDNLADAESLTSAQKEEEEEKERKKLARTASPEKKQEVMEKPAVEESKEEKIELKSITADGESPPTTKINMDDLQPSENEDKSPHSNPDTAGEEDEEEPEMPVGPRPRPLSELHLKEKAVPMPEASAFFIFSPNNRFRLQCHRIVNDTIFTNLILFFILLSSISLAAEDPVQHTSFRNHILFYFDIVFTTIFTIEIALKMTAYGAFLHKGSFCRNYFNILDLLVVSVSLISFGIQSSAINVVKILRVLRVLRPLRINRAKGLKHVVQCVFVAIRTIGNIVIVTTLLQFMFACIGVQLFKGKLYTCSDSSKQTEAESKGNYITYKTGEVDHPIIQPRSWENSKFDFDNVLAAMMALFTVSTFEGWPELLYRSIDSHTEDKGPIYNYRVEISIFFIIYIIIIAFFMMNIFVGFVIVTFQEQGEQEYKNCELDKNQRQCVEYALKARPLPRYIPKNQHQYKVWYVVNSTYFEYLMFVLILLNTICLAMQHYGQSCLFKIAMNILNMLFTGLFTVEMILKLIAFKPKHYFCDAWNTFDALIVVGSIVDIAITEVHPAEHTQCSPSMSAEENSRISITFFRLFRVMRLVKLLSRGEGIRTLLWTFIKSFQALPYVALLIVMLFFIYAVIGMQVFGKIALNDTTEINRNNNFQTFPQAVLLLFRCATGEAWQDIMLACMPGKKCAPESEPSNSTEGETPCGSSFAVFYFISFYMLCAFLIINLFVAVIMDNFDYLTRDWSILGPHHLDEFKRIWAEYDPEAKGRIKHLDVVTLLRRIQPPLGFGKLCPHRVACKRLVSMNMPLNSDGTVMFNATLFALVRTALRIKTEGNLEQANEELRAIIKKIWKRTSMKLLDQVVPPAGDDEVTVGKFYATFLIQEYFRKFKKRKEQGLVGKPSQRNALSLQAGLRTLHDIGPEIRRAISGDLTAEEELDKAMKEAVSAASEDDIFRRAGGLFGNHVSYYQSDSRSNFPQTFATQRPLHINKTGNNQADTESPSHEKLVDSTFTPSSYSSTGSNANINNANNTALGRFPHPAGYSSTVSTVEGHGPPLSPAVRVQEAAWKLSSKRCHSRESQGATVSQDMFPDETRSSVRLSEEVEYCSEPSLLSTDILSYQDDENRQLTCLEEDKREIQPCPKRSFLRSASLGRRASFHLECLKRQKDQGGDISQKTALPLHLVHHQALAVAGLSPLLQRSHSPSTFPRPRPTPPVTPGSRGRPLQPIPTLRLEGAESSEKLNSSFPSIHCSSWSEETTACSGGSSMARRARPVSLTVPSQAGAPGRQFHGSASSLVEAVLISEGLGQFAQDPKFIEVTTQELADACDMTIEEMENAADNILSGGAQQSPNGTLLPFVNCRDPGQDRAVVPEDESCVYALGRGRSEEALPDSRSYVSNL
Chain of rat dorsal aorta (P54290 25-944 partner limits assumed): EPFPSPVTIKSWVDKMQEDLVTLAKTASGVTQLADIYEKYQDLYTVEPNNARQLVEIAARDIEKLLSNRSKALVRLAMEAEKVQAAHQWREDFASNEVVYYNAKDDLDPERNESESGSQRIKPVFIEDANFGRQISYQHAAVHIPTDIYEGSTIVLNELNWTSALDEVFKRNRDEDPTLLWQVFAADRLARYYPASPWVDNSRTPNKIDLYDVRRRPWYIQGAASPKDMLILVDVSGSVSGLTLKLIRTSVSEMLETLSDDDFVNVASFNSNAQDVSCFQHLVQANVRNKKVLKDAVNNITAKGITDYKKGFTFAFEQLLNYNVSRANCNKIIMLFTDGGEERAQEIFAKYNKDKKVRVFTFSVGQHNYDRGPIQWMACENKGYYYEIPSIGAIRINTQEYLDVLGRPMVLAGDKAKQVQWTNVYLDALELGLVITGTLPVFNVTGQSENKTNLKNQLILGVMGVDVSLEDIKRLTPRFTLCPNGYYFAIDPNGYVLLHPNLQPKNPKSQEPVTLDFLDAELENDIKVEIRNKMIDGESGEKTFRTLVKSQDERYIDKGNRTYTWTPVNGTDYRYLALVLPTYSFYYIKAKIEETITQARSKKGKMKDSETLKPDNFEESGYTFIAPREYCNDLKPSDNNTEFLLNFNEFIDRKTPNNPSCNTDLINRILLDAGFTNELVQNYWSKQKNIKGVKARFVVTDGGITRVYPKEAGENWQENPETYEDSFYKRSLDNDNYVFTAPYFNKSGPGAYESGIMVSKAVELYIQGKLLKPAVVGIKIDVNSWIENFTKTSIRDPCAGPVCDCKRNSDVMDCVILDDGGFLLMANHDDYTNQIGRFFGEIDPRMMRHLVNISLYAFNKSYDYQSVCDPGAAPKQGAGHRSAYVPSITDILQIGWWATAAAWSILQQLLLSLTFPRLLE
Chain of rat dorsal aorta (P54290 945-1091 partner limits assumed): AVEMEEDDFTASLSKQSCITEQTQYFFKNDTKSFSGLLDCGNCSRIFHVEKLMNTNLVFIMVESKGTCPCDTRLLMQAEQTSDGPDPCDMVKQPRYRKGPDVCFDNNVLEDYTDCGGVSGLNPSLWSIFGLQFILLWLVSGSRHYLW

Row | Structure (SMILES) | Kb (rat dorsal aorta; [2]) [nM] | Kb (rat dorsal aorta; […], active if 7 or greater) [nM] | anti-ischemia action / protection against autolysis caused by ischemia ([1]; in words, in vitro and in vivo laboratory tests) | Autolysis (% Protection) [1] [%]
1 | COC(=O)C1=C(C)NC(C)=C(C(=O)OCCCN(C)CCSc2ccccc2OC)C1c1cccc([N+](=O)[O-])c1 (centres unmarked) [Example 41] | 2.75 |  |  | 
2 | COC(=O)C1=C(C)NC(C)=C(C(=O)OCCCN(CCN(C)c2ccccc2)Cc2ccccc2)C1c1cccc([N+](=O)[O-])c1 (centres unmarked) [Example 45, [3-[[[2-(N-Methyl-N-phenyl)amino]ethyl]-N'-phenylmethyl]propyl]Methyl 1,4-Dihydro-2,6-dimethyl-4-(3-nitrophenyl)-3,5-pyridinedicarboxylate Dihydrochloride Sesquihydrate] | 0.794 |  |  | 
3 | COC(=O)C1=C(C)NC(C)=C(C(=O)OCCN(C)Cc2ccccc2)C1c1cccc([N+](=O)[O-])c1 (centres unmarked) [Nicardipine, reference compound] | 1.12 |  | fails to provide any protection against autolysis caused by ischemia | 0
4 | COC(=O)C1=C(C)NC(C)=C(C(=O)OCCCNCCc2c[nH]c3ccccc23)C1c1cccc([N+](=O)[O-])c1 (centres unmarked) [Example 33] | 0.0316 |  |  | 35
5 | COC(=O)C1=C(C)NC(C)=C(C(=O)OCCCN(C)CCN(Cc2ccccc2)c2ccccc2)C1c1cccc([N+](=O)[O-])c1 (centres unmarked) [Example 38] |  |  |  | 16
6 | COC(=O)C1=C(C)NC(C)=C(C(=O)OCCCN(CCSc2ccccc2)CCSc2ccccc2)C1c1cccc([N+](=O)[O-])c1 (centres unmarked) [Example 43] | 2.4 |  |  | 2
7 | COC(=O)C1=C(C)NC(C)=C(C(=O)OCCCNCCOc2ccccc2)C1c1cccc([N+](=O)[O-])c1 (centres unmarked) [Example 35] | 0.468 |  |  | 21
8 | CCCCN(CCCOC(=O)C1=C(C)NC(C)=C(C(=O)OC)C1c1cccc([N+](=O)[O-])c1)CCOc1ccccc1 (centres unmarked) [Example 44, [3-[[N-Butyl-N-(2-phenoxyethyl)]amino]propyl]Methyl 1,4-Dihydro-2,6-dimethyl-4-(3-nitrophenyl)-3,5-pyridinedicarboxylate Hydrochloride Hemihydrate] | 0.933 |  |  | 16
9 | COC(=O)C1=C(C)NC(C)=C(C(=O)OCCCN(CCSc2ccccc2)Cc2ccccc2)C1c1cccc([N+](=O)[O-])c1.Cl (centres unmarked) [Example 46, Methyl [3-[N-(Phenylmethyl)-N-[2-(phenylthio)ethyl]amino]propyl] 1,4-Dihydro-2,6-dimethyl-4-(3-nitrophenyl)-3,5-pyridinedicarboxylate Hydrochloride] |  | 5.62 |  | 3
10 | COC(=O)C1=C(C)NC(C)=C(C(=O)OCCCNCCNc2ccccc2)C1c1cccc([N+](=O)[O-])c1 (centres unmarked) [Example 32] | 2.95 |  |  | 0
11 | COC(=O)C1=C(C)NC(C)=C(C(=O)OCCCN(C)CCSc2ccc(C(C)(C)C)cc2C)C1c1cccc([N+](=O)[O-])c1 (centres unmarked) [Example 39] | 14.5 |  |  | 51
12 | COC(=O)C1=C(C)NC(C)=C(C(=O)OC)C1c1ccccc1[N+](=O)[O-] [Nifedipine, 4-(2'-nitrophenyl)-2,6-dimethyl-3,5-dicarbomethoxy-1,4-dihydropyridine, reference compound] |  |  |  | 21

Further lines, with some results ahead:

Row | Kb (rat dorsal aorta; [2]) [nM] | Kb (rat dorsal aorta; […], active if 7 or greater) [nM] | Structure (SMILES) | anti-ischemia action / protection against autolysis caused by ischemia ([1]; in words, in vitro and in vivo laboratory tests) | Autolysis (% Protection) [1] [%]
13 | 0.251 |  | COC(=O)C1=C(C)NC(C)=C(C(=O)OCCCN(C)CC[S+]([O-])c2ccccc2)C1c1cccc([N+](=O)[O-])c1 (centres unmarked) [Example 47, Methyl [3-[N-Methyl-N-[2-phenylsulfinyl)ethyl]amino]propyl] 1,4-Dihydro-2,6-dimethyl-4-(3-nitrophenyl)-3,5-pyridinedicarboxylate Hydrochloride Hydrate] |  | 21
14 | 3.63 |  | COC(=O)C1=C(C)NC(C)=C(C(=O)OCCCN(C)CCCSc2ccccc2)C1c1cccc([N+](=O)[O-])c1 (centres unmarked) [Example 40] |  | 23
15 | 0.126 |  | COC(=O)C1=C(C)NC(C)=C(C(=O)OCCCN(C)CCN(C)c2ccccc2)C1c1cccc([N+](=O)[O-])c1 (centres unmarked) [Example 36] |  | 12
16 |  | 0.126 | COC(=O)C1=C(C)NC(C)=C(C(=O)OCCCN(C)CCSc2ccccc2)C1c1cccc([N+](=O)[O-])c1.Cl (centres unmarked) [Example 34, Methyl [3-[N-Methyl-N-[2-(phenylthio)ethyl]amino]propyl] 1,4-Dihydro-2,6-dimethyl-4-(3-nitrophenyl)-3,5-pyridinedicarboxylate Hydrochloride] |  | 43
17 | 0.129 |  | COC(=O)C1=C(C)NC(C)=C(C(=O)OCCCN(C)CCNc2ccccc2)C1c1cccc([N+](=O)[O-])c1 (centres unmarked) [Example 37] |  | 23
18 | 8.32 |  | COC(=O)C1=C(C)NC(C)=C(C(=O)OCCCNCCSc2ccccc2)C1c1cccc([N+](=O)[O-])c1 (centres unmarked) [Example 42] |  | 
